Reference: patent publication US12583820B2, “Broad spectrum antivirals against coronavirus” (priority 2020, dated 2026)
Like-named read-outs stand apart in the source and are kept apart here.

What was measured:
[1] = Nonspecific cytotoxic effects (CC50), CytoTox 96 kit
3CLpro of SARS-CoV-2 = target: T1, 3CLpro of SARS-CoV-2 (Severe acute respiratory syndrome coronavirus 2, UniProt P0DTD1); assay: biochemical; type: biochemical
T1 construct: The codon-optimized cDNA of full length of 3CLpro of SARS-CoV-2; 6xHis (N); made in house; pET-28a(+) vector (points to E. coli, my inference)

| Structure (SMILES) | CC50 at 72 h [1] | IC50 (3CLpro of SARS-CoV-2) | other results |
| --- | --- | --- | --- |
| CCCC1CCC(OC(=O)NC(CC(C)C)C(=O)NC(C=O)CC2CCNC2=O)CC1 [Compound 3b, (1s,4S)-4-propylcyclohexyl ((S)-4-methyl-1-oxo-1-(((S)-1-oxo-3-((S)-2-oxopyrrolidin-3-yl)propan-2-yl)amino)pentan-2-yl)carbamate] | > 100000 nM | 260 nM | – |
| CC(C)C[C@H](NC(=O)OC(Cc1ccccc1)c1ccccc1)C(=O)N[C@@H](C[C@@H]1CCNC1=O)C(O)S(=O)(=O)O (stereo partly drawn) [Compound 24c, Sodium (2S)-2-((2S)-2-(((1,2-diphenylethoxy)carbonyl)amino)-4-methylpentanamido)-1-hydroxy-3-((S)-2-oxopyrrolidin-3-yl)propane-1-sulfonate] | > 100000 nM | 3500 nM | – |
| CC(C)C[C@H](NC(=O)OCC(C)(C)Oc1ccc(Cl)cc1)C(=O)N[C@@H](CC1CCNC1=O)C(O)S(=O)(=O)O (stereo partly drawn) [MM-II-43] | – | 240 nM | – |
| CCCC(OC(=O)N[C@@H](CC(C)C)C(=O)N[C@H](C=O)C[C@@H]1CCNC1=O)c1ccccc1 (stereo partly drawn) [Compound 23b, 1-Phenylbutyl ((S)-4-methyl-1-oxo-1-(((S)-1-oxo-3-((S)-2-oxopyrrolidin-3-yl)propan-2-yl)amino)pentan-2-yl)carbamate] | > 100000 nM | – | fold more potent than the corresponding 24b/c aldehyde and bisulfite adducts (3CLpro of SARS-CoV-2): 27 fold; IC50 (3CLpro of SARS-CoV-2; read-out: IC50 against 3CLpro): 150 nM |
| CCCCC1CCC(OC(=O)NC(CC(C)C)C(=O)NC(C=O)CC2CCNC2=O)CC1 [Compound 4b, (1s,4S)-4-Butylcyclohexyl ((S)-4-methyl-1-oxo-1-(((S)-1-oxo-3-((S)-2-oxopyrrolidin-3-yl)propan-2-yl)amino)pentan-2-yl)carbamate] | > 100000 nM | 160 nM | – |
| [2H]C([2H])(OC(=O)N[C@@H](CC(C)C)C(=O)N[C@H](C=O)C[C@@H]1CCNC1=O)c1ccc(F)cc1 [Compound 20b, (4-Fluorophenyl)methyl-d2 ((S)-4-methyl-1-oxo-1-(((S)-1-oxo-3-((S)-2-oxopyrrolidin-3-yl)propan-2-yl)amino)pentan-2-yl)carbamate] | > 100000 nM | – | – |
| CC(C)C[C@H](NC(=O)OC(Cc1ccccc1)C1CCC(F)(F)CC1)C(=O)N[C@H](C=O)C[C@@H]1CCNC1=O (stereo partly drawn) [Compound 14b, 1-(4,4-Difluorocyclohexyl)-2-phenylethyl ((S)-4-methyl-1-oxo-1-(((S)-1-oxo-3-((S)-2-oxopyrrolidin-3-yl)propan-2-yl)amino)pentan-2-yl)carbamate] | > 100000 nM | 230 nM | – |
| CC(C)C[C@H](NC(=O)OC(C)(C)C1CCC(F)(F)CC1)C(=O)N[C@@H](C[C@@H]1CCNC1=O)C(O)S(=O)(=O)[O-].[Na+] (stereo partly drawn) [Compound 13c, Sodium (2S)-2-((S)-2-((((2-(4,4-difluorocyclohexyl)propan-2-yl)oxy)carbonyl)amino)-4-methylpentanamido)-1-hydroxy-3-((S)-2-oxopyrrolidin-3-yl)propane-1-sulfonate] | > 100000 nM | 900 nM | fold higher IC50 than those of 12b and 14c (3CLpro of SARS-CoV-2): ~4 fold |
| CC(C)C[C@H](NC(=O)OCc1c(F)c(F)c(F)c(F)c1F)C(=O)N[C@H](C=O)CC1CCNC1=O (stereo partly drawn) [Compound 21b, (Perfluorophenyl)methyl ((2S)-4-methyl-1-oxo-1-(((2S)-1-oxo-3-(2-oxopyrrolidin-3-yl)propan-2-yl)amino)pentan-2-yl) carbamate] | > 100000 nM | – | – |
| CC(C)C[C@H](NC(=O)OC(C)C1CCC(F)(F)CC1)C(=O)N[C@H](C=O)C[C@@H]1CCNC1=O (stereo partly drawn) [Compound 12b, 1-(4,4-Difluorocyclohexyl)ethyl ((S)-4-methyl-1-oxo-1-(((S)-1-oxo-3-((S)-2-oxopyrrolidin-3-yl)propan-2-yl)amino)pentan-2-yl)carbamate] | > 100000 nM | 210 nM | – |
| CC(C)C[C@H](NC(=O)OC(Cc1ccccc1)c1ccccc1)C(=O)N[C@H](C=O)C[C@@H]1CCNC1=O (stereo partly drawn) [Compound 24b, 1,2-Diphenylethyl ((S)-4-methyl-1-oxo-1-(((S)-1-oxo-3-((S)-2-oxopyrrolidin-3-yl)propan-2-yl)amino)pentan-2-yl)carbamate] | > 100000 nM | 4100 nM | – |
| CC(C)C[C@H](NC(=O)OCc1ccc(F)cc1)C(=O)N[C@@H](C[C@@H]1CCNC1=O)C(O)S(=O)(=O)O (stereo partly drawn) [Compound 19c, Sodium (2S)-2-((S)-2-((((4-fluorobenzyl)oxy)carbonyl)amino)-4-methylpentanamido)-1-hydroxy-3-((S)-2-oxopyrrolidin-3-yl)propane-1-sulfonate] | > 100000 nM | 380 nM | – |
| CCCCC(OC(=O)N[C@@H](CC(C)C)C(=O)N[C@H](C=O)C[C@@H]1CCNC1=O)C1CCC(F)(F)CC1 (stereo partly drawn) [Compound 16b, 1-(4,4-Difluorocyclohexyl)pentyl ((S)-4-methyl-1-oxo-1-(((S)-1-oxo-3-((S)-2-oxopyrrolidin-3-yl)propan-2-yl)amino)pentan-2-yl)carbamate] | > 100000 nM | 160 nM | – |
| CC(C)C[C@H](NC(=O)OCc1cccc(F)c1)C(=O)N[C@H](C=O)C[C@@H]1CCNC1=O [Compound 18b, 3-Fluorobenzyl ((S)-4-methyl-1-oxo-1-(((S)-1-oxo-3-((S)-2-oxopyrrolidin-3-yl)propan-2-yl)amino)pentan-2-yl)carbamate] | > 100000 nM | 320 nM | – |
| CC(C)C[C@H](NC(=O)OCC(C)(C)Oc1ccc(Cl)cc1)C(=O)N[C@H](C=O)CC1CCNC1=O (stereo partly drawn) [MM-II-42] | – | 260 nM | – |
| CCCC1CCC(COC(=O)NC(CC(C)C)C(=O)NC(C=O)CC2CCNC2=O)CC1 [Compound 8b, ((1r,4R)-4-Propylcyclohexyl) methyl ((2S)-4-methyl-1-oxo-1-(((2S)-1-oxo-3-(2-oxopyrrolidin-3-yl)propan-2-yl)amino)pentan-2-yl) carbamate] | > 100000 nM | 220 nM | – |
| [2H]C([2H])(OC(=O)N[C@@H](CC(C)C)C(=O)N[C@H](C=O)CC1CCNC1=O)C1CCC(F)(F)CC1 (stereo partly drawn) [Compound 11b, (4,4-Difluorocyclohexyl) methyl-d2 ((2S)-4-methyl-1-oxo-1-(((2S)-1-oxo-3-(2-oxopyrrolidin-3-yl)propan-2-yl)amino)pentan-2-yl) carbamate] | > 100000 nM | – | – |
| CC(C)C[C@H](NC(=O)OC(c1ccccc1)C1CCC(F)(F)CC1)C(=O)N[C@H](C=O)C[C@@H]1CCNC1=O (stereo partly drawn) [Compound 15b, (4,4-Difluorocyclohexyl)(phenyl)methyl ((S)-4-methyl-1-oxo-1-(((S)-1-oxo-3-((S)-2-oxopyrrolidin-3-yl)propan-2-yl)amino)pentan-2-yl)carbamate] | > 100000 nM | 100 nM | – |
| CC(C)C[C@H](NC(=O)OCc1ccc(F)cc1)C(=O)N[C@H](C=O)C[C@@H]1CCNC1=O [Compound 19b, 4-Fluorobenzyl ((S)-4-methyl-1-oxo-1-(((S)-1-oxo-3-((S)-2-oxopyrrolidin-3-yl)propan-2-yl)amino)pentan-2-yl)carbamate] | > 100000 nM | – | – |
| CC(C)C[C@H](NC(=O)OC1CCC(C)(C)CC1)C(=O)N[C@H](C=O)C[C@@H]1CCNC1=O [Compound 1b, 4,4-Dimethylcyclohexyl ((S)-4-methyl-1-oxo-1-(((S)-1-oxo-3-((S)-2-oxopyrrolidin-3-yl)propan-2-yl)amino)pentan-2-yl)carbamate] | > 100000 nM | 280 nM | – |
| CC(C)C[C@H](NC(=O)OC(c1ccccc1)C1CCC(F)(F)CC1)C(=O)N[C@@H](C[C@@H]1CCNC1=O)C(O)S(=O)(=O)O (stereo partly drawn) [Compound 15c, Sodium (2S)-2-((2S)-2-((((4,4-difluorocyclohexyl)(phenyl)methoxy)carbonyl)amino)-4-methylpentanamido)-1-hydroxy-3-((S)-2-oxopyrrolidin-3-yl)propane-1-sulfonate] | > 100000 nM | 160 nM | – |
| [2H]C([2H])(OC(=O)N[C@@H](CC(C)C)C(=O)N[C@@H](CC1CCNC1=O)C(O)S(=O)(=O)O)c1c(F)c(F)c(F)c(F)c1F (stereo partly drawn) [Compound 22c, Sodium (2S)-1-hydroxy-2-((S)-4-methyl-2-((((perfluorophenyl)methoxy-d2)carbonyl)amino)pentanamido)-3-(2-oxopyrrolidin-3-yl) propane-1-sulfonate] | > 100000 nM | 450 nM | – |
| CC(C)C[C@H](NC(=O)OCc1ccccc1F)C(=O)N[C@@H](C[C@@H]1CCNC1=O)C(O)S(=O)(=O)O (stereo partly drawn) [Compound 17c, Sodium (2S)-2-((S)-2-((((2-fluorobenzyl)oxy)carbonyl)amino)-4-methylpentanamido)-1-hydroxy-3-((S)-2-oxopyrrolidin-3-yl)propane-1-sulfonate] | > 100000 nM | 400 nM | – |
| CC(C)C[C@H](NC(=O)OCC1CCC(F)(F)CC1)C(=O)N[C@@H](C[C@@H]1CCNC1=O)C(O)S(=O)(=O)O (stereo partly drawn) [Compound 10c, Sodium (2S)-2-((S)-2-((((4,4-difluorocyclohexyl)methoxy)carbonyl)amino)-4-methylpentanamido)-1-hydroxy-3-((S)-2-oxopyrrolidin-3-yl)propane-1-sulfonate] | > 100000 nM | – | IC50 (3CLpro of SARS-CoV-2; read-out: IC50): 450 nM |
| CC(C)CC(NC(=O)OCC1C(c2ccccc2)C1(F)F)C(=O)NC(CC1CCNC1=O)C(O)S(=O)(=O)O (stereo not drawn) [GC1270] | – | 160 nM | – |
| CC(C)C[C@H](NC(=O)OCC1CCC(F)(F)CC1)C(=O)N[C@H](C=O)C[C@@H]1CCNC1=O [Compound 10b, (4,4-Difluorocyclohexyl)methyl ((S)-4-methyl-1-oxo-1-(((S)-1-oxo-3-((S)-2-oxopyrrolidin-3-yl)propan-2-yl)amino)pentan-2-yl)carbamate] | > 100000 nM | – | – |
| CC(C)CC(NC(=O)OCC1C(c2ccccc2)C1(F)F)C(=O)NC(C=O)CC1CCNC1=O (stereo not drawn) [GC1269] | – | 140 nM | – |
| [2H]C([2H])(OC(=O)N[C@@H](CC(C)C)C(=O)N[C@@H](C[C@@H]1CCNC1=O)C(O)S(=O)(=O)[O-])c1ccc(F)cc1.[Na+] (stereo partly drawn) [Compound 20c, Sodium (2S)-2-((S)-2-((((4-fluorophenyl)methoxy-d2)carbonyl)amino)-4-methylpentan amido)-1-hydroxy-3-((S)-2-oxopyrrolidin-3-yl)propane-1-sulfonate] | > 100000 nM | – | – |
